Measured values from the supplement of paper PMC11451515.

System: P12-Ichikawa
Test: cell viability relative to DMSO control; higher = less cytotoxic
Conditions: 48 h
Outline: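 Leukemia cells (NOMO1 or SEM, 500 cells/well; P12-Ichikawa, 1000 cells/well) were seeded in 5 μl in 1536-well plates after at least four passages of adaptation to each medium. They received library compounds in DMSO by pin dosing, 11 threefold points from 47 μM to 0.79 nM. Luminescence with CellTiter-Glo One was read after 48 h at 37°C. Viability is stated per plate relative to DMSO wells, with cell-free wells as background.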

[1] = HPLM + 10% dialyzed FBS, 0.000781 µM
[2] = HPLM + 10% dialyzed FBS, 0.00234 µM
[3] = HPLM + 10% dialyzed FBS, 0.00702 µM
[4] = HPLM + 10% dialyzed FBS, 0.0211 µM
[5] = HPLM + 10% dialyzed FBS, 0.0632 µM
[6] = HPLM + 10% dialyzed FBS, 0.19 µM
[7] = HPLM + 10% dialyzed FBS, 0.569 µM
[8] = HPLM + 10% dialyzed FBS, 1.71 µM
[9] = HPLM + 10% dialyzed FBS, 5.12 µM
[10] = HPLM + 10% dialyzed FBS, 15.4 µM
[11] = HPLM + 10% dialyzed FBS, 46.1 µM
[12] = RPMI 5 mM glucose + 10% FBS, 0.000781 µM
[13] = RPMI 5 mM glucose + 10% FBS, 0.00234 µM
[14] = RPMI 5 mM glucose + 10% FBS, 0.00702 µM
[15] = RPMI 5 mM glucose + 10% FBS, 0.0211 µM
[16] = RPMI 5 mM glucose + 10% FBS, 0.0632 µM
[17] = RPMI 5 mM glucose + 10% FBS, 0.19 µM
[18] = RPMI 5 mM glucose + 10% FBS, 0.569 µM
[19] = RPMI 5 mM glucose + 10% FBS, 1.71 µM
[20] = RPMI 5 mM glucose + 10% FBS, 5.12 µM
[21] = RPMI 5 mM glucose + 10% FBS, 15.4 µM
[22] = RPMI 5 mM glucose + 10% FBS, 46.1 µM
[23] = RPMI 5 mM glucose + 10% dialyzed FBS, 0.000781 µM
[24] = RPMI 5 mM glucose + 10% dialyzed FBS, 0.00234 µM
[25] = RPMI 5 mM glucose + 10% dialyzed FBS, 0.00702 µM
[26] = RPMI 5 mM glucose + 10% dialyzed FBS, 0.0211 µM
[27] = RPMI 5 mM glucose + 10% dialyzed FBS, 0.0632 µM
[28] = RPMI 5 mM glucose + 10% dialyzed FBS, 0.19 µM
[29] = RPMI 5 mM glucose + 10% dialyzed FBS, 0.569 µM
[30] = RPMI 5 mM glucose + 10% dialyzed FBS, 1.71 µM
[31] = RPMI 5 mM glucose + 10% dialyzed FBS, 5.12 µM
[32] = RPMI 5 mM glucose + 10% dialyzed FBS, 15.4 µM
[33] = RPMI 5 mM glucose + 10% dialyzed FBS, 46.1 µM

SMILES	cell viability [1] [%]	cell viability [2] [%]	cell viability [3] [%]	cell viability [4] [%]	cell viability [5] [%]	cell viability [6] [%]	cell viability [7] [%]	cell viability [8] [%]	cell viability [9] [%]	cell viability [10] [%]	cell viability [11] [%]	cell viability [12] [%]	cell viability [13] [%]	cell viability [14] [%]	cell viability [15] [%]	cell viability [16] [%]	cell viability [17] [%]	cell viability [18] [%]	cell viability [19] [%]	cell viability [20] [%]	cell viability [21] [%]	cell viability [22] [%]	cell viability [23] [%]	cell viability [24] [%]	cell viability [25] [%]	cell viability [26] [%]	cell viability [27] [%]	cell viability [28] [%]	cell viability [29] [%]	cell viability [30] [%]	cell viability [31] [%]	cell viability [32] [%]	cell viability [33] [%]
COc1cc2ncnc(-n3nc(-c4ccccn4)nc3N)c2cc1OC	93.6	97.9	102	99.7	95.9	103	105	104	88.5	96	0.508	89.2	100	98.6	101	98	105	107	102	78	82.7	0.293	83.8	92.6	90	81.6	93.2	107	96.2	101	82.6	82.9	0.35
CCC[C@@H]1C[C@@H](C(=O)N[C@@H]([C@H]2O[C@H](SC)[C@H](O)[C@@H](O)[C@H]2O)[C@@H](C)O)N(C)C1.Cl	119	113	122	111	122	125	111	98.8	97.8	106	100	119	114	106	112	119	123	89.9	83	96	102	101	122	117	128	140	145	108	66.4	70	112	95.9	94.4
COC1=CC=C2Nc3cc(Cl)ccc3C(N=C3C=C(CN4CCCC4)C(=O)C(CN4CCCC4)=C3)=C2N1	116	116	116	122	123	123	120	127	124	117	103	110	131	114	130	133	130	133	132	129	122	87.6	113	123	120	126	120	115	127	125	115	117	93
O=C/1\C=C(/OC(=C1)/C2=C3SC4=C(SC3=CC=C2)C=CC=C4)N5CCOCC5	81.4	100	98.5	10.6	100	103	102	98.1	95.2	94.4	95	84.7	92.7	96.9	11.2	103	100	106	104	93.1	102	102	83.4	94.4	97.2	23.7	95.7	84.4	99.2	99.4	96	95.7	90.8
CCNC(=O)C[C@@H]1\N=C(C2=CC=C(Cl)C=C2)/C3=C(C=CC(=C3)OC)[N]4C(=NN=C14)C	106	115	106	114	105	103	92.1	83.5	78.2	50.1	17	114	111	127	106	105	111	101	84.7	76	56.2	37.8	115	118	115	117	106	106	95.7	84	75.8	60.4	35.9
COc1cc(N2CCC(C(N)=O)CC2)ccc1Nc1nc(N)c(Cl)c(Nc2ccccc2[S+](=O)([O-])C(C)C)n1	88.6	97.4	102	95.2	111	106	108	104	96.9	84.1	3.45	81.9	102	101	107	103	98.1	99.9	95.9	77.8	64.6	2.33	91.3	104	98.8	94.7	103	97.9	100	88	74.9	54.9	4.65
